Test results: PMC4019635 (PLoS ONE, 2014)

Key:
[1] = target: RDLbdI/V (Drosophila melanogaster, UniProt P25123, I283V); test: cell-based
[2] = target: RDLbdI/VA^301S (Drosophila melanogaster, UniProt P25123, A301S/I283V); test: cell-based
Sequence of RDLbdI/VA^301S (P25123 45-606 I283V/A301S): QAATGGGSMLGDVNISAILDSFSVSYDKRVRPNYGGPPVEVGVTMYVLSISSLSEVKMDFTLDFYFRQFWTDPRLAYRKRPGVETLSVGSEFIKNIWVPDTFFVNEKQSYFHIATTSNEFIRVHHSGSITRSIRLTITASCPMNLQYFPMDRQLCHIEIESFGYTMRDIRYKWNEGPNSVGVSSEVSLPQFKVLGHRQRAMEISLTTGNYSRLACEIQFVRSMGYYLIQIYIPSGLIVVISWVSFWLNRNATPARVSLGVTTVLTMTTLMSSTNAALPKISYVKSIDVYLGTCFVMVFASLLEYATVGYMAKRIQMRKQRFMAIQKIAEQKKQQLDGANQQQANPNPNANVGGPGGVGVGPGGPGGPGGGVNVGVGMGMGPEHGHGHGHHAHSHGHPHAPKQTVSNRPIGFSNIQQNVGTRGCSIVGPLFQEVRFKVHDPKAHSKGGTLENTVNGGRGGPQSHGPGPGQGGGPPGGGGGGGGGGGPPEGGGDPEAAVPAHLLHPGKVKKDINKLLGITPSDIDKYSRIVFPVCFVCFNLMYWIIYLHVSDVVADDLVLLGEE

Sequence of RDLbdI/V (P25123 45-606 I283V): as the sequence (P25123 45-606 I283V/A301S) above, with S257A counted along it

Structure (SMILES)	IC50 [1] [µM]	IC50 [2] [µM]	EC50 [1] [µM]
CC[C@H](C)[C@H]1O[C@]2(CC[C@@H]1C)C[C@@H]1C[C@@H](C/C=C(\C)[C@@H](O[C@H]3C[C@H](OC)[C@@H](O[C@H]4C[C@H](OC)[C@@H](O)[C@H](C)O4)[C@H](C)O3)[C@@H](C)/C=C/C=C3\CO[C@@H]4[C@H](O)C(C)=C[C@@H](C(=O)O1)[C@]34O)O2 [IVM, ivermectin]	0.468	1.2	
NCc1cc(=O)[nH]o1 [muscimol]			95.5
NCCC(=O)O [β-alanine]			3090
NC/C=C/C(=O)O [TACA, trans-4-aminocrotonic acid]			263
